Measured values published in PMC10754035 (Cancer Research Communications, 2023).

Tests used:
[1] = target: T1, GTP-KRAS G12D binding to GST-RBD (Homo sapiens, UniProt P01116, G12D); experiment: KRAS G12D/GST-RBD pulldown assay; assay type: biochemical; details: GST pulldown, Fig. 2 legend; read-out: IC50, inhibition of GTP-KRAS G12D/GST-RBD binding
T1 construct: Human His-tagged KRAS4B (1-169) G12D, G12V and G12C were custom synthesized; Addgene (GST-RBD) Addgene 13338; host or cells: E. coli BL21 star (DE3)
T1 sequence (P01116 1-169 isoform P01116-2 G12D): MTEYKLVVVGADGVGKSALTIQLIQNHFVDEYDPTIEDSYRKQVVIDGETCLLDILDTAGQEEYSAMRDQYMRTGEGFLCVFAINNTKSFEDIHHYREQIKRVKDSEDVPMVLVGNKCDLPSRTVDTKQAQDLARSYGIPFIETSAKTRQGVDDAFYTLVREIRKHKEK
Protocol: For pulldown experiment, KRAS G12D was preloaded with either GTP or GDP as described above. GDP- or GTP-bound KRAS G12D proteins (250 nmol/L in 100 µL) were then incubated with indicated compound at 37°C for 15–16 minutes. GST-RBD (final 500 nmol/L) was then added and the mixture rocked at 37°C for 1 hour. Pierce glutathione agarose beads (Thermo Fisher Scientific; 20 µL) were then added and the mixture rocked at 37°C for 1 hour. The beads were then washed and the samples were processed for SDS-PAGE and Western blotting with respective antibodies to check the interaction between KRAS-GTP and GST-RBD proteins in presence or absence of the compounds. All the protein dilutions and washes were carried out in a buffer containing 25 mmol/L Tris (pH 7.5), 100 mmol/L NaCl, 5 mmol/L MgCl2, 1% NP-40, 5% glycerol, and 0.1 mmol/L DTT.
Expression and purification of GST-RBD: The Raf1-GST-RBD in pGEX-2T vector in DH5α cells was obtained from Addgene (Raf1 GST RBD 1-149, Plasmid catalog # 13338). GST-RBD plasmid DNA was transformed in BL21*(DE3) bacteria, streaked on agar plate to obtain the colonies . A distinct colony was picked and grown in ampicillin selection media to OD600 of around 0.6-0.8 before induction with IPTG (0.5 mM). Bacterial pellet was resuspended with lysis buffer (50 mM Tris HCL (pH 7.5), 150 mM NaCl, 0.5% Triton X-100, 5 mM MgCl2, 1 mM DTT, 10% Glycerol, 3 mM β-mercaptoethanol) and homogenized. The homogenized lysate was centrifuged at 14000 rpm at 4 °C for 40 min and the resulting supernatant was collected and filtered. The filtered supernatant was incubated with glutathione agarose (Pierce^TM) beads (Thermo Scientific, USA) at 4 °C for 60 min. After incubation, beads and lysate suspension was passed through Bio-Rad Econo column. The beads were washed using lysis buffer (as described above), and the GST-RBD eluted with elution buffer (50 mM Tris HCL (pH 7.5), 150 mM NaCl, 0.5% Triton X-100, 5 mM MgCl2, 1 mM DTT, 10% Glycerol, 10 mM Glutathione). Eluted GST-RBD protein fractions were buffer exchanged into 25 mM Tris (pH 7.5), 150 mM NaCl, 0.5 mM DTT and 5 mM MgCl2 buffer and stored at -80°C.
GTP and GDP nucleotide exchange for GST-RBD pull down: KRAS protein was exchanged with GTP (Sigma, USA) and GDP (Sigma, USA) using EDTA- loading procedure. The RAS proteins (235 µM final) were incubated with ~40-fold molar excess of EDTA (10 mM final), and ~45-fold molar excess of either GDP or GTP for 90 min at 37°C. After incubation, the sample was kept on ice for 10 minutes before incubating with ice-cooled 1M MgCl2 (65 mM final) for 20 minutes to stop the reaction. To remove excess unbound nucleotide, EDTA and magnesium, the proteins were re-buffered using PD10 columns (GE Life Sciences) into (25 mM Tris (pH 7.5), 150 mM NaCl, 0.5 mM DTT and 5 mM MgCl2) buffer and concentrated using Millipore spin ultrafiltration devices (10,000 Da cut off, 4,000 x g). The protein concentration was measured using Pierce Rapid GOLD BCA Protein Assay Kit (Thermo Scientific, USA) and aliquots were stored in -80°C.

binding of KRAS to RAF1 = target: T2, binding of KRAS to RAF1 (Homo sapiens, UniProt P01116, G12D); experiment: Co-immunoprecipitation of KRAS and RAF1; assay type: cell-based; details: Panc0203 and Panc1 cells, 20 µmol/L, 15 minutes
T2 construct: endogenous in cells; host or cells: Panc0203 and Panc1 human pancreatic cancer cells
T2 sequence (P01116 1-188 isoform P01116-2 G12D): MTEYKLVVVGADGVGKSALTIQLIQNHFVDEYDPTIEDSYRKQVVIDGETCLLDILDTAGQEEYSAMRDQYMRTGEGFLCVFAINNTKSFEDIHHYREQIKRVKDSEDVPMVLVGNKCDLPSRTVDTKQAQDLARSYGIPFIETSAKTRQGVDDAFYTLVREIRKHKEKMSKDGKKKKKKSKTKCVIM
Protocol: Human pancreatic cancer cell lines Panc0203 and Panc1 were treated with DMSO control or 20 µmol/L KRB456 for 15 minutes. Cells were then washed twice with ice-cold PBS, followed by addition of lysis buffer [25 mmol/L Tris (pH 7.5), 150 mmol/L NaCl, 1 mmol/L EDTA (pH 8.0), 1% NP-40, 5% glycerol and protease and phosphatase inhibitor cocktail tablet (Thermo Fisher Scientific)]. Cell lysates were centrifuged, and the lysate supernatants from Panc0203 (1 mg) and Panc1 (1 mg) were precleared using Protein A/G PLUS-Agarose beads (Santa Cruz Biotechnology), for 30 minutes at 4°C, and 30 µg RAS antibody (Abcam, catalog no. ab180772) was then added to the precleared supernatants and the mixture rocked overnight at 4°C. Separate normal rabbit IgG (EMD Millipore, catalog no. 12-370) mixtures were used as internal control. After incubation, immunoprecipitates were collected by adding 30 µL of Protein A/G PLUS-Agarose beads and rocking the mixtures for 4 hours at 4°C. After incubation beads were washed four times with lysis buffer and boiled at 100°C for 10 minutes with 4X Laemmli sample buffer (Bio-Rad) and analyzed by Western blotting as described below.

P-MEK = experiment: Western blot of P-MEK in cultured cells; assay type: cell-based, human; details: for increase of P-MEK / P-MEK levels: 2 hours
Description: To prepare whole-cell lysates, cells were washed twice with cold PBS and lysed in M-PER Mammalian Protein Extraction Reagent (product no. 78501, Thermo Fisher Scientific) supplemented with Pierce protease and phosphatase inhibitor cocktail (product no. A32961, Thermo Fisher Scientific). Tumor tissue samples were lysed in T-PER Tissue Protein Extraction Reagent (product no. 78510, Thermo Fisher Scientific) with above supplement. The automatic hand-operated OMNI-TIP Homogenizer (Omni International, Inc.) was used to homogenize the tumor tissues. Lysates from whole cells and tumor homogenates were then processed for SDS-PAGE Western blotting. The following antibodies were used: Phospho-MEK1/2 (S217/221; catalog no. 9154S), MEK1/2 (catalog no. 4694S), Phospho-AKT (S473; catalog no. 9271S), Phospho-AKT (T308; catalog no. 4056S), AKT (catalog no. 9272S), Phospho-Erk1/2 (catalog no. 4370S), Erk1/2 (catalog no. 4695S), Phospho-S6 Ribosomal Protein (Ser 235/236; catalog no. 4858S), S6 Ribosomal Protein (catalog no.2217S), cleaved-CASP-3 (catalog no. 9664), cleaved-PARP (catalog no. 9541) from Cell Signaling Technology; anti-β-ACTIN (catalog no A5441-.2ML from Sigma-Aldrich; KRAS (catalog no. OP24, from EMDMillipore), and RAF1 (catalog no. sc-7267, Santa Cruz Biotechnology), horseradish peroxidase–conjugated goat anti-GST antibody (catalog no. A190-121P from Bethyl Laboratories).

COC(=O)C1C2C3(C)C(=O)C=CC2(OC3=O)C2CCC3(CBr)CC12CC3=O (stereo not shown) [KRB-456]
IC50 [1]: 260 nM
binding of KRAS to RAF1 in intact cells (binding of KRAS to RAF1): inhibited the binding of KRAS to RAF1
increase of P-MEK (P-MEK; Panc1 cells, 1 µmol/L): 1.4 fold
increase of P-MEK (P-MEK; Panc1 cells, 3 µmol/L): 1.1 fold
P-MEK levels (P-MEK; Panc1 cells, 10 µmol/L): significantly decreasing
P-MEK levels, time course (P-MEK; Panc0203 and Panc1 cells, increase within 5 min, peak at 15 minutes, decrease from 30 minutes, significant decreases between 8 and 48 hours): transiently increased
P-MEK levels (P-MEK; Panc0203 cells, 0, 1, 3, 10 µmol/L, concentration-dependent starting at 1 µmol/L): significantly decreased
